Measurements as given in patent US10322129B2, “Therapeutic compositions containing dipyridamole, treatment packs and kits including such compositions and methods for producing same” (O.D. Ocular Discovery Ltd., priority 2015, dated 2019).
Converted amounts (≈) assume the structure as drawn.

Columns and labels:
[1] = dissolution in aqueous solution by adjusting the pH; type: physicochemical; conditions: pH of the aqueous solution adjusted to ~6.6 (6.5-6.7) or less
From the text: The natural pH of tear fluid is 7.4; however, discomfort for the user will not be felt as long as the pH of the administered medication stays in the range of 6.6-7.8 (Sampath Kumar et al., “Recent Challenges and Advances in Ophthalmic Drug Delivery System,” in The Pharma Innovation, Vol. 1, No. 4 (2012)). Others administer eye drops at a pH of 5.5 and find this pH to be optimal.

[2] = cited from earlier work
[3] = cited from earlier work; remark: listed apart in the source

Compound: OCCN(CCO)c1nc(N2CCCCC2)c2nc(N(CCO)CCO)nc(N3CCCCC3)c2n1 [Dipyridamole, dipyridamole]
- dissolution in the aqueous solution [1]: fully dissolves
- solubility in methanol [2]: very soluble
- water solubility ([3]; Meylan, W M ET AL. (1996)): 8.17 mg/L (≈ 16.2 µM)
- solubility in water ([3]; water): practically insoluble
